Literature values as cited in patent US7510836B2, “Alpha arteether resistance domain” (priority 2003, dated 2009).

Columns and labels:
[1] = cited from earlier work
malaria = conditions: cited from earlier work
[2] = cited from earlier work; remark: listed apart in the source

## C[C@@H]1CC[C@H]2[C@@H](C)C(=O)O[C@@H]3O[C@@]4(C)CC[C@@H]1[C@]32OO4 [Artemisinin, artemisinin]
[1]
  half-life: short
malaria
  Plasmodicidal property: high plasmodicidal property
[2]; aprotic solvents
  Solubility in most aprotic solvents: readily soluble
[2]; water and oil
  Solubility in water and oil: poorly soluble
